Reference: article PMC9916658, “Design and Synthesis of New Quinazolin-4-one Derivatives with Negative mGlu7 Receptor Modulation Activity and Antipsychotic-Like Properties” (International Journal of Molecular Sciences, 2023)
In brackets after ≈: the same amount, converted by molar mass.

What was measured:
[1] = biological target: T1, recombinant human mGlu7 receptor (Homo sapiens, UniProt Q14831); assay: NAM mGlu7 activity, forskolin-induced cAMP (HTRF) in T-REx 293 cell line; type: cell-based; conditions: forskolin-stimulated cAMP response, 5 µM LSP4-2022 (EC80), T-REx 293 human mGlu7; for inhibition at 10 µM: T-REx-293, 10 μM compound
T1 construct: expressed in transfected cells; host or cells: T-REx 293 (tetracycline-inducible)
T1 sequence (Q14831 35-915): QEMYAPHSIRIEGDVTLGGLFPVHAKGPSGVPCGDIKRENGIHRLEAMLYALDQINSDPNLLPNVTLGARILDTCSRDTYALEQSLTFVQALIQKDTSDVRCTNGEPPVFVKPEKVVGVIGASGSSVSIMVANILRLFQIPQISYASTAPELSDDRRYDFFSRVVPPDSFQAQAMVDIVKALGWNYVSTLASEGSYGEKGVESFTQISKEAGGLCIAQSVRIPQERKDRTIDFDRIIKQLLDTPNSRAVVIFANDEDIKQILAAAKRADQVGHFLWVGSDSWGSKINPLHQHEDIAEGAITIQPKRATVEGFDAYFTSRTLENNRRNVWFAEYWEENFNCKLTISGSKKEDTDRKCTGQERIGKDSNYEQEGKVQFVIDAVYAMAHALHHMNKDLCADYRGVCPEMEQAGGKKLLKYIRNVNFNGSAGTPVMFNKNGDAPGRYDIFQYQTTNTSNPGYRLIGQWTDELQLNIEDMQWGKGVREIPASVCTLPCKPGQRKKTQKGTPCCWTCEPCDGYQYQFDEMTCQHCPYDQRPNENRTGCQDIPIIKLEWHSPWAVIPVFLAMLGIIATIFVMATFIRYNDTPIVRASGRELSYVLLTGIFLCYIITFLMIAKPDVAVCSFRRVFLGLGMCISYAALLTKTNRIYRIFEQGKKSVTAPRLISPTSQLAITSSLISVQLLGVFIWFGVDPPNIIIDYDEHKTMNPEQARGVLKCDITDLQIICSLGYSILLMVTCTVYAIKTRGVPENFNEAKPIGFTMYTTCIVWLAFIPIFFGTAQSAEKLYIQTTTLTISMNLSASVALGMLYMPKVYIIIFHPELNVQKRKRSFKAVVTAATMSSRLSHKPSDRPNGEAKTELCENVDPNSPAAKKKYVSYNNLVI
Method: The cell lines with the tetracycline-inducible expression of human metabotropic receptors 4, 7, and 8 were described in detail by Chruścicka et al. (mGlu4 receptor NM_000841, mGlu7 receptor NM_000844.2, and mGlu8 receptor NM_000845). Cells were grown under standard cell culture conditions (37 °C, 5% CO2) in DMEM supplemented with 10% tetracycline-free FBS. The expression was induced through the addition of tetracycline to the culture medium at 0.75 μg/mL.
The determination of the intracellular cAMP through homogeneous time-resolved fluorescence (HTRF) was described in detail previously. Briefly, 48 h before the experiments, the expression of the receptor was induced through the addition of tetracycline to the culture medium; the next day, FBS and L-Glu were removed from the medium. Just before the cAMP measurement, the cells were detached and centrifuged. Then, the cell suspension in Hanks-HEPES (130 mM NaCl, 5.4 mM KCl, 1.8 mM CaCl2, 0.8 mM MgSO4, 0.9 mM NaH2PO4, 20 mM HEPES, and 3.25 mM glucose; pH 7.4) was incubated in the presence of 10 µM forskolin (mGlu7 receptor, 3 µM forskolin), the agonist LSP4-2022 or L-Glu (for mGlu4 and mGlu8), and a compound for 5 min. The intracellular concentration of cyclic AMP was measured by means of a cAMP Gi HTRF kit from Cisbio, according to the manufacturer’s instructions. After 1 h of incubation at room temperature, the fluorescence at 620 nm and 665 nm was read (Tecan Infinite M1000). The results were calculated as the 665 nm/620 nm ratio multiplied by 10^4. Each sample was prepared in triplicate. Data were analyzed using GraphPad Prism version 5.04 for Windows (GraphPad Software, San Diego, USA).
The activity of the compounds was examined in the T-REx 293-cell-line-expressing recombinant human mGlu7 receptor by detecting the level of cyclic AMP in the presence of 5 µM forskolin [7, 41]. […] The substances were incubated with 5 µM LSP4-2022 (EC80).
Firstly, all compounds were screened at 10 μM using three cell lines expressing the mGlu4/7/8 receptor to evaluate selectivity. For the mGlu4 and mGlu8 receptors, glutamic acid was used as an agonist and had good potency. […] VU0155041 and AZ12216052 were used as reference compounds for the mGlu4 and mGlu8 receptors, respectively. The parameter described as “% of inhibition” was introduced to compare the bioactivity of the new compounds to the reference NAM at a 10 μM concentration in the presence of 5 μM LSP4-2022 (0%) and 3 μM forskolin (100%). […] For compounds that passed the screening procedure, the dose–response curve in the presence of LSP4-2022 in 5 μM was evaluated compared to reference NAM ADX71743. Only compounds ALX-063, ALX-065, and ALX-171 (Figure S3, Supplementary Materials) met our conditions regarding bioactivity. All of them were further investigated to determine the EC50 and receptor selectivity. […]
2.1. NAM mGlu7 receptor activity on T-Rex 293 cell line
The activity of compounds was examined on T-REx 293 cell line expressing recombinant human mGlu7 receptor by detecting the level of cyclic AMP in the presence of 5 µM forskolin [14,15]. The cell line was […]
incubated with 5 µM of LSP4-2022 (EC80).

mock T-REx 293 cell line = assay: Off-target T-REx screening, forskolin-induced cAMP in untransfected cells; type: cell-based
Excerpt: Off-target (T-Rex screening)
Figure S5. Activity of compounds ALX-065 and ALX-171 in forskolin-induced cAMP accumulation in
untransfected cells of the T-REx 293 line. Similar to reference mGlu7 receptor ADX71743, no effects of the tested […]

[2] = Kinetic solubility assay in HBSS buffer; type: physicochemical; conditions: aqueous buffer, kinetic from dmso stock; Hanks-HEPES (HBSS buffer), pH 7.4; read-out: KS (kinetic solubility)
Method: The kinetic solubility assay was performed to determine the solubility of the compounds in the in vitro assay conditions. The assay investigated the solubility based on the precipitation process in the HBSS buffer. For the preparation of the assay buffer, the following compounds were dissolved in 800 mL purified water: • − 130 mM sodium chloride, NaCl (7.600 g); • − 5.4 mM potassium chloride, KCl (0.403 g); • − 0.8 mM magnesium sulfate, MgSO4 × 7H2O (0.197 g); • − 0.9 mM sodium phosphate monobasic, NaH2PO4 × 2H2O (0.140 g); • − 25 mM D-glucose (4.500 g); • − 20 mM HEPES sodium salt (5.210 g).
The buffer was adjusted to pH 7.4, and the following compound was added to the mixture: • − 1.8 mM calcium chloride, CaCl2 × 2H2O (0.265 g).
The total volume was adjusted to 1000 mL.
The investigated compounds were diluted (in triplicate) with the HBSS buffer at pH 7.4 to a final concentration of 500 μM.
The mixture was shaken on a filter plate at 500 rpm for 1.5 h at RT. After incubation, the filter plate was placed inside a vacuum manifold and filtrated. Samples were collected and the concentration of the filtrate was determined spectrophotometrically by measuring the UV–VIS absorption spectrum. Concentrations were calculated based on equations resulting from the calibration curves (in duplicates, 8 calibration points, dilution Factor ×2, 500 µM → 3.91 µM, including blank sample).

CYP3A4 = biological target: T2, CYP3A4 (Homo sapiens, UniProt P08684); assay: CYP inhibition assay, recombinant enzyme, fluorescence; type: in vitro ADME; conditions: test concentrations 1.1, 3.3 and 10 μM; read-out: Cytochrome P450 3A4 IC50
T2 construct: purchased BD Biosciences
T2 sequence (P08684 whole entry): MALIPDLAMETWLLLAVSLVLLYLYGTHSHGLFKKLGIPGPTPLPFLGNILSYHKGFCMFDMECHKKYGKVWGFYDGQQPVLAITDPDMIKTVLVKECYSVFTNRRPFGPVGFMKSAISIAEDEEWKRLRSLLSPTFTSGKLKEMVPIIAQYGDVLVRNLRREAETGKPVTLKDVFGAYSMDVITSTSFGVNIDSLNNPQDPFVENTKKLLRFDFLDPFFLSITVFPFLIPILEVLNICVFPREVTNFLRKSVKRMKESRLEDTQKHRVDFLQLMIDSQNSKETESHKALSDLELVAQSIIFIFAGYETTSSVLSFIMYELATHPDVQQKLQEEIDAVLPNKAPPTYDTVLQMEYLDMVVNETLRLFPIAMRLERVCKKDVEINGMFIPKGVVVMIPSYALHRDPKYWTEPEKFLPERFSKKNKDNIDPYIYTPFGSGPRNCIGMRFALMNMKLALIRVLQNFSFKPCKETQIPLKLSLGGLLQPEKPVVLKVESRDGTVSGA
Method: CYP inhibition was performed with the recombinant enzymes CYP1A2, CYP2B6, CYP2C9, CYP2C19, CYP2D6, and CYP3A4 obtained from BD Biosciences. Compounds for CYP inhibition testing were prepared as 10 mM stock solutions in DMSO. Isoform-specific substrates were incubated at 37 °C individually with P450 enzymes (Table 5) and a range of test compound concentrations (1.1, 3.3 and 10 μM) in duplicate. Each isoform was tested separately with one reference compound, a known positive control inhibitor. […] At the end of the incubation, product formation was monitored with fluorescence detection.

inhibition at 10 µM [1] [%] | solubility kinetic at 1.5 h [2] [µM] | IC50 (CYP3A4) [µM] | Inhibition (%) ([1]; 10 μM compound) | SMILES | effect on forskolin-induced cAMP accumulation in untransfected cells (mock T-REx 293 cell line)
26.5 ± 11.8 | 6.88 (≈ 2.39 µg/mL) | > 10 |  | Cn1c(-c2ccccc2Cl)nc2ccc(-c3ccccc3)cc2c1=O [ALX-065, 2-(2-chlorophenyl)-3-methyl-6-phenylquinazolin-4(3H)-one] | no effects
30.8 ± 6.44 | 15.2 (≈ 6.2 µg/mL) | 3.3 to 10 | 30.8 ± 6.44 | COc1cccc(-c2ccc3nc(-c4ccccc4Cl)n(C)c(=O)c3c2)c1OC [ALX-171, 2-(2-chlorophenyl)-6-(2,3-dimethoxyphenyl)-3-methylquinazolin-4(3H)-one] | no effects

SMILES | inhibition at 10 µM [1] [%] | solubility kinetic at 1.5 h [2] [µM] | IC50 (CYP3A4) [µM] | Inhibition (%) ([1]; 10 μM compound) | effect on forskolin-induced cAMP accumulation in untransfected cells (mock T-REx 293 cell line)
CCc1nc2c(o1)CC(c1ccc(C)cc1C)CC2=O (stereo not drawn) [ADX71743, reference compound] | 42.6 | 510 (≈ 137 µg/mL) |  |  | no effects
